Patent US9393219B2, “Monophenols and benzenediols sensitization of immune system against haptenized melanoma antigens” (ACADEMISCH ZIEKENHUIS BIJ DE UNIVERSITEIT VAN AMSTERDAM, priority 2005, dated 2016)
Like-named read-outs stand apart in the source and are kept apart here.

Key:
skin = settings: cases in workers of polymer or leather industries; cited from earlier work
[1] = system: skin of vitiligo patients; assay: histology of skin of vitiligo patients undergoing depigmentation therapy; type: in vivo, human
Text: (§1) No reaction occurs in depigmented skin. This entails that the inflammatory reaction is directed towards something, what is only present in melanocytes, e.g. tyrosinase, TRP1 and/or TRP2. However, auto-antibodies to tyrosinase, TRP1 and TRP2 have been reported to occur at low frequencies, or not at all, in vitiligo patients (37,38,39,40,41).

[2] = system: melanocytes and keratinocytes; assay: in vitro toxic effects on melanocytes and keratinocytes; type: cell-based
Text: as §1

[3] = system: pigmented skin / depigmented skin; assay: in vivo inflammatory response of pigmented and depigmented skin; design: species or system human
Text: as §1

melanoma = settings: cited from earlier work; for toxicity of intra arterial infusion: intra arterial infusions in the lower limbs, high doses; for efficacy as chemotherapeutic in melanoma: metastatic/disseminated melanoma, intra arterial infusion of high doses
metastatic melanoma = settings: immunotherapy; cited from earlier work

CC(C)(C)c1ccc(O)c(O)c1 [TBC, 4-tert-butylcatechol]
depigmentation on exposure of the skin (skin): causes leukoderma and can induce vitiligo-like depigmentation

Oc1ccc(OCc2ccccc2)cc1 [Monobenzone, p-(benzyloxy)phenol]
histology of skin: infiltrate [1]: dense infiltrate consisting of mainly CD8^+ cells and macrophages | granulocytes in the skin infiltrate ([1]; granulocytes would indicate a toxic (orthoergic) reaction): no granulocytes | sensitivity of melanocytes and keratinocytes to the toxic effects [2]: equally sensitive | inflammatory reaction ([3]; depigmented skin): No reaction | inflammatory response with erythema, edema and scaliness ([3]; pigmented skin): only seen in the pigmented skin | depigmentation on exposure of the skin (skin): causes leukoderma and can induce vitiligo-like depigmentation

COc1ccc(O)cc1 [4-HA, 4-hydroxyanisole]
toxicity of intra arterial infusion (melanoma): serious renal and hepatic toxicity | toxicity of intra arterial infusion (melanoma; listed as 4-Hydroxyanisole): severe toxic events | efficacy as chemotherapeutic in melanoma (melanoma): without success | efficacy as chemotherapeutic in melanoma (melanoma; listed as 4-Hydroxyanisole): not effective

B1: interferon (IFNγ): interferon (IFNγ) used as immunotherapy for metastatic melanoma (protein, UniProt P01579 24-161, looked up)
Interferon gamma: QDPYVKEAENLKKYFNAGHSDVADNGTLFLGILKNWKEESDRKIMQSQIVSFYFKLFKNFKDDQSIQKSVETIKEDMNVKFFNSNKKKRDDFEKLTNYSVTDLNVQRKAIHELIQVMAELSPAAKTGKRKRSQMLFRG
response rate (metastatic melanoma): approximately 15%
